Measurements reported in patent US20050221328A1, “Inhibitors of inflammatory gene activity and cholesterol biosynthesis” (Wyeth, priority 2002, published 2005).

What was measured:
HepG2 cells = assay: Gene expression in HepG2 cells treated 24 hr with CDCA or GW 4064; type: cell-based, human
Method: HepG2 cells were maintained in growth media at 37° C. in a 5% CO2 incubator. The cells were seeded in deficient growth media (phenol red free DMEM (Gibco BRL) supplemented with heat-inactivated 10% FBS, 1% Glutamax, 1% MEM non-essential amino acids, 100 U/ml penicillin and 100 μg/ml streptomycin) at 4-5×10^5 cells per well in a 6 well dish (Falcon). The cells were then placed into serum deficient media for 24 hr before addition of the compounds for an additional 24 hrs. The cells were then harvested for RNA analysis.
To further investigate the possibility that bile acid signaling through FXR can promote inflammatory gene expression, experiments were conducted in the hepatocyte cell line, HepG2. […] HepG2 cells express a number of inflammatory genes including ICAM-1 and M-CSF constitutively (Stonans et al '99 Cytokine 11:151). […] As positive controls, the induction of SHP mRNA and the repression of cyp7a were confirmed.
Referring to FIG. 24a-b, HepG2 cells were treated for 24 hr with increasing concentrations of chenodeoxycholic acid (CDCA). […] Data are reported as mean±SEM for each group. C57BL/6 mice. […] Data are reported as mean±SEM for each group.

human ICAM-1 promoter = assay: ICAM-1 promoter luciferase reporter in HepG2 cells transfected with human FXR and RXRα; type: cell-based; conditions: HepG2 transfections, GW 4064 1 uM, 24 or 48 hr; required proximal NF-κB response element
Text: Referring to FIG. 26, HepG2 cells were transfected with the human FXR and RXRα expression plasmid and luciferase reporter plasmids containing the proximal promoter region of the human SHP (−360 to +40) or sequential deletions of the human ICAM-1 promoter (−1108 or −810 to +18). […] Data represent the mean+S.D. of three independent transfections.

ICAM-1 = assay: Hepatic mRNA levels after single oral dose of GW 4064 in C57BL/6 mice; type: in vivo, mouse; conditions: single oral dose 50 mg/kg, hepatic mRNA (FIG. 25)
[1] = HepG2, 24 hr, CDCA 1-100 uM or GW 4064 1-1000 nM

- EC50 observed for ICAM-induction vs cited FXR EC50 (HepG2 cells; HepG2): comparable
- cyp7a expression (HepG2 cells; HepG2, 24 hr, positive control): repression
Structure (SMILES): CC(C)c1onc(-c2c(Cl)cccc2Cl)c1COc1ccc(/C=C/c2cccc(C(=O)O)c2)c(Cl)c1 [GW 4064]
- ICAM-1 expression (HepG2 cells; [1]): induced in a dose dependent manner
- M-CSF expression (HepG2 cells; [1]): induced in a dose dependent manner
- SHP mRNA (HepG2 cells; HepG2, 24 hr, positive control): induction
- ICAM-1 promoter activity (human ICAM-1 promoter): stimulated
- ICAM-1 expression in vivo (ICAM-1): induces
